Data set [1] addresses T1, breast cancer resistance protein (BCRP) (Homo sapiens, UniProt Q9UNQ0).
T1 sequence (Q9UNQ0 1-655): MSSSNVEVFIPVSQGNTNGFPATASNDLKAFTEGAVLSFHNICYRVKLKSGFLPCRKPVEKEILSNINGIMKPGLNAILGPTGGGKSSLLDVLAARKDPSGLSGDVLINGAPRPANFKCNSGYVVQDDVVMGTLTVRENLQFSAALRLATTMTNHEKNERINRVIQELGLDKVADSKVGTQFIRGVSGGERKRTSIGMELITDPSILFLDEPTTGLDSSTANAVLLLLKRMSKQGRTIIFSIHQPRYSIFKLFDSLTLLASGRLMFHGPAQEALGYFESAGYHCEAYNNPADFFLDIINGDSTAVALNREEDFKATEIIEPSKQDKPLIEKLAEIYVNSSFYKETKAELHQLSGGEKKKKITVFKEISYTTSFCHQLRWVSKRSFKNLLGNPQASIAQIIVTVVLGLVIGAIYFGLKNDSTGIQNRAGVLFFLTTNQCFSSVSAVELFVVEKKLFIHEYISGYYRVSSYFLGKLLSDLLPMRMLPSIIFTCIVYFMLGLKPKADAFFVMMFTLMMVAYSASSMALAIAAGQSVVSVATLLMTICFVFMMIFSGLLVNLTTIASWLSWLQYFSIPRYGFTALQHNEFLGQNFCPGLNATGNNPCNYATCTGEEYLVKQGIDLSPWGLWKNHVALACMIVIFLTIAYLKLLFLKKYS
As to the kind of experiment: In vitro transporter substrate data (BCRP). The data set is classed as in vitro ADME.

Data set [2] can be described thus: Phase 1 relative bioavailability (capsule v. tablet) and food effect study. It counts as in vivo, human. An excerpt:
This example describes a Phase 1 study to compare the single-dose PK of an etrumadenant tablet versus an etrumadenant capsule, in healthy adult participants (19-55 years of age), and to evaluate the effect of food on the single-dose PK of etrumadenant tablet, in healthy adult participants.
The study was an open-label, randomized, 3-treatment, 3 period crossover study to evaluate the relative bioavailability (BA) of etrumadenant tablet and capsule formulations and the effect of food on the tablet formulation. On Day 1 of each period, a single dose of etrumadenant was administered in a 3-period crossover fashion. Participants (n=24) received etrumadenant capsules under fasting (Treatment A) conditions and etrumadenant tablets under fasting (Treatment B) and fed (high-fat meal; Treatment C) conditions. PK samples for etrumadenant and its metabolites were taken predose and up to 120 hours post dose. There was a washout of at least 7 days between the etrumadenant doses. All participants who received at least one dose of etrumadenant (including participants who terminate the study early) were asked to return to the Clinical Research Unit (CRU) 14 (+2) days after the last dose for follow-up procedures, and to determine if any adverse event (AE) has occurred since the last study visit.
Study treatments are described as follows. […]
Additional PK parameters were calculated if deemed appropriate. […]

The results in this text go back to patent US20260115190A1, “DISPERSIONS OF ETRUMADENANT” (Arcus Biosciences, Inc., priority 2022, published 2026).

For the compound `Cc1c(C#N)cccc1-c1cc(-c2cn(Cc3cccc(C(C)(C)O)n3)nn2)nc(N)n1` [Etrumadenant, 3-[2-amino-6-(1-{[6-(2-hydroxypropan-2-yl)pyridine-2-yl]methyl}-1H-1,2,3-triazol-4-yl)pyrimidin-4-yl]-2-methylbenzonitrile], the “substrate of breast cancer resistance protein (BCRP)” value in data set [1] is on record as “substrate”. For the same compound, in data set [2] (150 mg, fasting), the “Cmax, AUC and Tmax in capsules and tablets” value is on record as “statistically equivalent”. Moreover, in data set [2] (tablet 150 mg), the “effect of fed conditions on overall exposure (AUClast and AUCINF) compared to fasting condition” value was “no effect”.
